The text below walks through data of ChEMBL document CHEMBL5137046, “Discovery of novel 2,3-dihydro-1H-inden-1-ones as dual PDE4/AChE inhibitors with more potency against neuroinflammation for the treatment of Alzheimer's disease” (Eur J Med Chem, 2022).

Active and inactive are the calls of the source. The rule behind the calls is not given here.

Data set [1] addresses Acetylcholinesterase (Electrophorus electricus, UniProt O42275). The data set is described as follows: Inhibition of electric eel AChE using acetylthiocholine iodide as substrate preincubated with enzyme for 20 mins followed by substrate addition and measured after 10 mins by Ellman's method.
The target in data set [2] is T1, 3',5'-cyclic-AMP phosphodiesterase 4D (Homo sapiens, UniProt Q08499). Briefly: Inhibition of PDE4D7 (unknown origin).
For data set [3], the target named is Acetylcholinesterase (Electrophorus electricus) (UniProt O42275). Briefly: Inhibition of electric eel AChE using acetylthiocholine iodide as substrate at 10 uM preincubated with enzyme for 20 mins followed by substrate addition and measured after 10 mins by Ellman's method. To be noted: time 30.0 min.
The target in data set [4] is T1, 3',5'-cyclic-AMP phosphodiesterase 4D. The data set is described as follows: Inhibition of PDE4D7 (unknown origin) at 10 uM.
Data set [5] has as its system PC-12. Briefly: Neuroprotective activity against rat PC-12 cells assessed as inhibition of Abeta(25-35)-induced cytotoxicity by measuring increase in cell viability at 10 uM incubated for 24 hrs by MTT assay. Format: functional, cell-based.
In data set [6] the test system is BV-2. The data set is described as follows: Anti-neuroinflammatory activity against LPS-stimulated mouse BV-2 cells assessed as reduction in TNF-alpha production at 20 uM pretreated for 1 hr with compound followed by LPS treatment for 24 hrs by ELISA. The data set is classed as functional, cell-based. To be noted: time 25.0 hrs.
Data set [7] deals with Mus musculus. The data set is described as follows: In vivo inhibition of AChE in hippocampus of aggregated Abeta(25-35)-induced Alzheimer's disease C57BL/6 mouse model at 2 mg/kg, iv measured after 2 hrs by Ellman's method. The data set is classed as functional, organism-based.
The subject of data set [8] is Mus musculus. Briefly: Anti-neuroinflammatory activity against aggregated Abeta(25-35)-induced Alzheimer's disease C57BL/6 mouse model assessed as inhibition of TNF-alpha production in hippocampus at 2 mg/kg, iv measured after 2 hrs by ELISA. The data set is classed as functional, organism-based.
The test system of data set [9] is Mus musculus. Briefly: Anti-neuroinflammatory activity against aggregated Abeta(25-35)-induced Alzheimer's disease C57BL/6 mouse model assessed as inhibition of TNF-alpha production in hippocampus at 1 mg/kg, iv measured after 2 hrs in presence of 1 mg/kg, iv rolipram by ELISA. Format: functional, organism-based.
The target of data set [10] is Acetylcholinesterase (Electrophorus electricus) (UniProt O42275). The data set is described as follows: Inhibition of electric eel AChE using acetylthiocholine iodide as substrate at 1 uM preincubated with enzyme for 20 mins followed by substrate addition and measured after 10 mins by Ellman's method. The note with it: time 30.0 min.
For data set [11] the target is unchanged. Briefly: Potency index, ratio of donepezil IC50 to test compound IC50 for inhibition of electric eel AChE using acetylthiocholine iodide as substrate preincubated with enzyme for 20 mins followed by substrate addition and measured after 10 mins by Ellman's method. The note with it: time 30.0 min.
Data set [12] concerns the target Cholinesterase (Equus caballus, UniProt P81908). Briefly: Inhibition of horse serum BuChE using butyrylthiocholine iodide as substrate preincubated with enzyme for 20 mins followed by substrate addition and measured after 10 mins by Ellman's method. Format: cell-free.
Data set [13] addresses Dual specificity calcium/calmodulin-dependent 3',5'-cyclic nucleotide phosphodiesterase 1A (Homo sapiens, UniProt P54750). Briefly: Inhibition of PDE1A (unknown origin).
The target of data set [14] is cGMP-dependent 3',5'-cyclic phosphodiesterase (Homo sapiens, UniProt O00408). Briefly: Inhibition of PDE2A (unknown origin).
Data set [15] deals with cGMP-inhibited 3',5'-cyclic phosphodiesterase 3B (Homo sapiens, UniProt Q13370). The data set is described as follows: Inhibition of PDE3B (unknown origin).
The target in data set [16] is cGMP-specific 3',5'-cyclic phosphodiesterase (Homo sapiens, UniProt O76074). Briefly: Inhibition of PDE5A (unknown origin).
Data set [17] is described as follows: Inhibition of […] (unknown origin). The arrangement: species or system Homo sapiens.
Data set [18] addresses High affinity 3',5'-cyclic-AMP phosphodiesterase 7A (Homo sapiens, UniProt Q13946). The data set is described as follows: Inhibition of PDE7A (unknown origin).
Data set [19] deals with High affinity cAMP-specific and IBMX-insensitive 3',5'-cyclic phosphodiesterase 8A (Homo sapiens, UniProt O60658). The data set is described as follows: Inhibition of PDE8A1 (unknown origin).
In data set [20] the target is High affinity cGMP-specific 3',5'-cyclic phosphodiesterase 9A (Homo sapiens, UniProt O76083). The data set is described as follows: Inhibition of PDE9A2 (unknown origin).
Data set [21] can be described thus: Neurotoxicity against rat PC-12 cells assessed as reduction in cell viability up to 20 uM incubated for 24 hrs by MTT assay. The note with it: pc-12, 24 h. Format: toxicity, cell-based.
The test system of data set [22] is PC-12. Briefly: Neuroprotective activity against rat PC-12 cells assessed as inhibition of Abeta(25-35)-induced cytotoxicity by measuring increase in cell viability at 10 to 20 uM incubated for 24 hrs by MTT assay. Format: functional, cell-based. To be noted: dose 10-20 µM.
Data set [23] deals with BV-2. The data set is described as follows: Cytotoxicity against mouse BV-2 cells assessed as reduction in cell viability at 20 uM by MTT assay. The data set is classed as toxicity, cell-based. To be noted: bv-2, 20 µM.
Data set [24] deals with BV-2. The data set is described as follows: Anti-neuroinflammatory activity against LPS-stimulated mouse BV-2 cells assessed as reduction in TNF-alpha production pretreated for 1 hr with compound followed by LPS treatment for 24 hrs by ELISA. The data set is classed as functional, cell-based. The note with it: dose 5-20 µM, time 25.0 hrs, DDE = dose-dependent effect.

Acetylcholinesterase (Electrophorus electricus), sequence (O42275 24-633 limits assumed): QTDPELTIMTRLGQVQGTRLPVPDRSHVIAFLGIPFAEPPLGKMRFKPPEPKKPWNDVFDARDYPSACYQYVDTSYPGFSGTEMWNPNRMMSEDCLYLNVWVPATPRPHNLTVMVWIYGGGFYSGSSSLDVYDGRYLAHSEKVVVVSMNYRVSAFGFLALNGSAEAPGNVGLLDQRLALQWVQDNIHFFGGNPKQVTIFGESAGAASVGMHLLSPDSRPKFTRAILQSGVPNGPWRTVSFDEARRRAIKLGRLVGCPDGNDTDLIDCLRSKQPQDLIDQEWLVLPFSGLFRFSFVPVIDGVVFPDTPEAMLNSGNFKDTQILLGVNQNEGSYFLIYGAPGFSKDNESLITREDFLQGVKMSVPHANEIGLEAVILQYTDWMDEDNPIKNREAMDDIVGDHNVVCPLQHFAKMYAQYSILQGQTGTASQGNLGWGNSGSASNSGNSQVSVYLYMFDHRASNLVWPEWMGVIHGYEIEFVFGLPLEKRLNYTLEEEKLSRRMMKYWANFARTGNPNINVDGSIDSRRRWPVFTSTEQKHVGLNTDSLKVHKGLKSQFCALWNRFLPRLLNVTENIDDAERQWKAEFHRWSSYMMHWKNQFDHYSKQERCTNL
T1 sequence (Q08499 whole entry): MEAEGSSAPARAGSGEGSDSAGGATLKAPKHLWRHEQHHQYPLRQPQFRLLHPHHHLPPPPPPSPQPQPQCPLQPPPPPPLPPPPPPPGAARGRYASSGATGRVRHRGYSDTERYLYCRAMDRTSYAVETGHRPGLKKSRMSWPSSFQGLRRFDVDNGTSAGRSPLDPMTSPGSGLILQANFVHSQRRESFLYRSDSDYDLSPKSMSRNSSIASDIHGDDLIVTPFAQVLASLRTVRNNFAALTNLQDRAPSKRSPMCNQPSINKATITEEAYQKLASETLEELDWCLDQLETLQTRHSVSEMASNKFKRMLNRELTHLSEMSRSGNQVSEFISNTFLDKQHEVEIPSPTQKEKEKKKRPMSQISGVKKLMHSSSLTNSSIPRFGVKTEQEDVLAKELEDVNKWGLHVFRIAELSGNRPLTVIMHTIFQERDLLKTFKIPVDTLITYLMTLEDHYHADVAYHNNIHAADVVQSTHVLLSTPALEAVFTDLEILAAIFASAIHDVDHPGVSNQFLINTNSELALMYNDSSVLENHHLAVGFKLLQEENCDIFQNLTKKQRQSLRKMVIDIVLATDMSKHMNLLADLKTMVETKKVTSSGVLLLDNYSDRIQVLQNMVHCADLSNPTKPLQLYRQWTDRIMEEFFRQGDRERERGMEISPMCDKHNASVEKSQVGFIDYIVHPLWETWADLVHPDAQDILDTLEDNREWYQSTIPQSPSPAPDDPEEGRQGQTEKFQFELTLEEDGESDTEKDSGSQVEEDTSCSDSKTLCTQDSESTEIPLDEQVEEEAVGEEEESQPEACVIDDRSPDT
Acetylcholinesterase, sequence (O42275 whole entry): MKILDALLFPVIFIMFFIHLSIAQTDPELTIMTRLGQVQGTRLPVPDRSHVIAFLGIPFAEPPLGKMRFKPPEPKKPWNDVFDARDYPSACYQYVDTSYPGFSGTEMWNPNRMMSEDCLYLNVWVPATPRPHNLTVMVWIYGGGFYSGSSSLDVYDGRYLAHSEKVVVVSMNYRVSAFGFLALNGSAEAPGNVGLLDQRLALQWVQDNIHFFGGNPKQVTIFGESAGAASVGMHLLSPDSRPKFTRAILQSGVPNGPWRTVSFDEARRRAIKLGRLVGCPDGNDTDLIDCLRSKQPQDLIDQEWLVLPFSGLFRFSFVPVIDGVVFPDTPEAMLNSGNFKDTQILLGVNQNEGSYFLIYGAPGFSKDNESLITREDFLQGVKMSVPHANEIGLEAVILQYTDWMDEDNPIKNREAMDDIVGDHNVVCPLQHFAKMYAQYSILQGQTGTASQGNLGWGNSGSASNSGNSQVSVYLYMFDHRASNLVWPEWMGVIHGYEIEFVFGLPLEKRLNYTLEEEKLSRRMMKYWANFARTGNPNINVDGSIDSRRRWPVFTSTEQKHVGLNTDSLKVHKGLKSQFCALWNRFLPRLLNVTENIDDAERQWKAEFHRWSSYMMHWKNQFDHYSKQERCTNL
cGMP-inhibited 3',5'-cyclic phosphodiesterase 3B, sequence (Q13370 whole entry): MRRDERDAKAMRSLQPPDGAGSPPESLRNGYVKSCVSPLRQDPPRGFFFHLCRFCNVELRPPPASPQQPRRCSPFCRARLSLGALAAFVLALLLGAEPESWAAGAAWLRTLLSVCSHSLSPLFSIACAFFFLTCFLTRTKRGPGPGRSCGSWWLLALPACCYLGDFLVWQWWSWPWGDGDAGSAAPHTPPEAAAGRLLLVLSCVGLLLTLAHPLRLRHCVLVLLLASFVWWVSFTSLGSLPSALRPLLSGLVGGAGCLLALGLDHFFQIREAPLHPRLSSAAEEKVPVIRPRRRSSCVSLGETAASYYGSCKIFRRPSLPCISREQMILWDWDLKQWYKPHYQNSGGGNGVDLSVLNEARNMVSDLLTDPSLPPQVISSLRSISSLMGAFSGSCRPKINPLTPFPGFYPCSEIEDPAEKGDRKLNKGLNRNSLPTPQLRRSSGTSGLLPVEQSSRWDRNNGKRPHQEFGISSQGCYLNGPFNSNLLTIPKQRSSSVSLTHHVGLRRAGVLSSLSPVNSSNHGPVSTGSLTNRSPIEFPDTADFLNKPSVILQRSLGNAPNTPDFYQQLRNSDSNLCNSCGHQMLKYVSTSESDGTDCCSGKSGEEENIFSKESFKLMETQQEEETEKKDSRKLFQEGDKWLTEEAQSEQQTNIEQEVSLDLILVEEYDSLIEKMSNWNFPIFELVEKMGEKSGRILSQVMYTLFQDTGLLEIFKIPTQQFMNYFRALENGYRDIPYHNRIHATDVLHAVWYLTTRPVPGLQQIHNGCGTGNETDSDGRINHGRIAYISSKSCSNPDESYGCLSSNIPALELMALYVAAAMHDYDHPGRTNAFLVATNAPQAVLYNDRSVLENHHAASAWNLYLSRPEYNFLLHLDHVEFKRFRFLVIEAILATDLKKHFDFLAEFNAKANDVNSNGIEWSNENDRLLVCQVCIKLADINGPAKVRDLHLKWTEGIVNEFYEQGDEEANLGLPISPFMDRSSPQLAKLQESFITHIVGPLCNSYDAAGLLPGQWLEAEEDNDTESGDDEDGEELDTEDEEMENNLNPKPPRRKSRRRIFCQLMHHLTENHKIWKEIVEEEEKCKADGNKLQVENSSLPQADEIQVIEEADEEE
High affinity cAMP-specific and IBMX-insensitive 3',5'-cyclic phosphodiesterase 8A, sequence (O60658 whole entry): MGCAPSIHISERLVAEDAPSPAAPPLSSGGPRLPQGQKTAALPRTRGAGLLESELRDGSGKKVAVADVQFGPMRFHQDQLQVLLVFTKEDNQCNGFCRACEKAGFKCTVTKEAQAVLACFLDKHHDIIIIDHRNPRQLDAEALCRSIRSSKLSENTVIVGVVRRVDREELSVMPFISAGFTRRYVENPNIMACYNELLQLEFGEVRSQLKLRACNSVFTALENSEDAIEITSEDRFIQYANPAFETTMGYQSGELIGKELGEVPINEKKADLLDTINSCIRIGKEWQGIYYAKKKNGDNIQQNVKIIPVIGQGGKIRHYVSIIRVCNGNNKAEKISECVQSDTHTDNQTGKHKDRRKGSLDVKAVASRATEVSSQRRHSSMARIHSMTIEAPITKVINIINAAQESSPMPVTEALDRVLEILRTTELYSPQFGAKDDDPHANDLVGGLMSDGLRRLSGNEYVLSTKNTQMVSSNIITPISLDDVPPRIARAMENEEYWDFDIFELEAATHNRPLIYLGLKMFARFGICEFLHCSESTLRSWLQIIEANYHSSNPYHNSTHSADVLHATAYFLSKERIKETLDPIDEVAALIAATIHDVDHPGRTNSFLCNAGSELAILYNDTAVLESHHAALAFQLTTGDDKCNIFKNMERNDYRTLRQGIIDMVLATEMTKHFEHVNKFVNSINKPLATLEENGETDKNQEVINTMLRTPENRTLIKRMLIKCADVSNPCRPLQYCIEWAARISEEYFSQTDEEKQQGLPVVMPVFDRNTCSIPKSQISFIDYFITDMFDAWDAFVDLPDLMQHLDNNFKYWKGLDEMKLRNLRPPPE
High affinity cGMP-specific 3',5'-cyclic phosphodiesterase 9A, sequence (O76083 whole entry): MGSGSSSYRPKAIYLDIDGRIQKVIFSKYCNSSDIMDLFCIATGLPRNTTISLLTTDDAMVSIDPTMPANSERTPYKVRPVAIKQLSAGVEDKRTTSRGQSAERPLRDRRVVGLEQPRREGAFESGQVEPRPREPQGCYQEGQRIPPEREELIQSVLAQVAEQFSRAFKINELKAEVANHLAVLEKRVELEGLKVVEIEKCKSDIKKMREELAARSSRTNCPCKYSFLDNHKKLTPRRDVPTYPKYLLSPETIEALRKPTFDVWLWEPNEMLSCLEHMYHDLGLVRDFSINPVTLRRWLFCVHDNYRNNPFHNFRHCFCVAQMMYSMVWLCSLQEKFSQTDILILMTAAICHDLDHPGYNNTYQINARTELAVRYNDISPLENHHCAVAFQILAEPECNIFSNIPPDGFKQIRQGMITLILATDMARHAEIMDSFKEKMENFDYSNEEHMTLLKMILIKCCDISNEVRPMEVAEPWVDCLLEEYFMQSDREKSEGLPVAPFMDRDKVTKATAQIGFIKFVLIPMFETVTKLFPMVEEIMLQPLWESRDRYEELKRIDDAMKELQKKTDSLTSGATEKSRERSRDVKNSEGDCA
High affinity 3',5'-cyclic-AMP phosphodiesterase 7A, sequence (Q13946 whole entry): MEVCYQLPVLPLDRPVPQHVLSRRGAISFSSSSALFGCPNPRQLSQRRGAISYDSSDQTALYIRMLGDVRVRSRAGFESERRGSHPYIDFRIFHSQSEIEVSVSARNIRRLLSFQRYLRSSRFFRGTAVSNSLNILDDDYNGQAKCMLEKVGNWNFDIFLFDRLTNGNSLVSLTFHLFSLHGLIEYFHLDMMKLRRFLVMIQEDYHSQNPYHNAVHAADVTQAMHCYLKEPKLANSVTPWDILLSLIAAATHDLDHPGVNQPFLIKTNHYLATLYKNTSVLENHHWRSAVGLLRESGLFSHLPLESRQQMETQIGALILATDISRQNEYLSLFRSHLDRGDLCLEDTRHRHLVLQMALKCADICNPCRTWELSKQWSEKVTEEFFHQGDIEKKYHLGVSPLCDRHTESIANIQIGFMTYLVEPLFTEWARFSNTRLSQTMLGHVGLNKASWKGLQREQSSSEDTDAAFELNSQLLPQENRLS

For `COc1cc2c(cc1OC1CCCC1)C(=O)C(Cc1ccccn1)C2` (stereo not given), the values for the half-maximal inhibitory concentration (IC50) in [1] and in data set [2] were 38.3 µM and 8.7 µM, respectively. In data set [3], this compound came in with an inhibition of 11%.
Take `COc1cc2c(cc1OCC(C)C)CC(CC1CCNCC1)C2=O` (stereo not given): the inhibition in data set [4] and in [3] was less than 10% in each case.
Regarding `COc1cc2c(cc1OC)C(=O)C(CC1CCN(Cc3ccccc3)CC1)C2` (stereo not given) [DONEPEZIL], the IC50 in data set [2] worked out at 36 µM. Also, the outcome in data set [5], in data set [6], in data set [8] and in [9] was Active. In [7], the inhibition entry is “Active”.
Turning to `COc1cc2c(cc1OC1CCCC1)CC(Cc1ccncc1)C2=O` (stereo not given), the results for the IC50 in data set [1] and in data set [2] were 30.5 µM and 5.3 µM, respectively. Also, in data set [3], the inhibition worked out at 27%.
In the case of `COc1cc2c(cc1OCC1CC1)CC(Cc1ccncc1)C2=O` (stereo not given), the inhibition stood at 31% in [4] and 23% in [3].
On to `COc1cc2c(cc1OCC(C)C)C(=O)C(CC1CCNCC1)C2` (stereo not given), for which the inhibition is less than 10% in data set [4] and 12% in data set [3].
Consider `COc1cc2c(cc1OCC(C)C)C(=O)C(CC1CCN(Cc3ccccc3)CC1)C2` (stereo not given), for which, in [1], 0.5 µM corresponded to half-maximal inhibition (IC50). This compound also had an inhibition in data set [4] of less than 10%.
The compound `COc1ccc(CC2Cc3cc(OC)c(OCCN4CCCC4)cc3C2=O)cc1` (stereo not given) displayed an inhibition in data set [10] of 20%.
In the case of `COc1cc2c(cc1OCC1CC1)C(=O)C(CC1CCNCC1)C2` (stereo not given), the inhibition in data set [4] was less than 10%; in data set [3] it was 21%.
For `COc1cc2c(cc1OC1CCCC1)C(=O)/C(=C/c1ccncc1)C2`, the IC50 was determined as 11.4 µM in data set [1] and 3.1 µM in [2]. This compound also gave an inhibition in [3] of 51%.
The matching figures for `COc1cc2c(cc1OCC(C)C)CC(Cc1ccncc1)C2=O` (stereo not given): 64.3 µM, 4.2 µM and 15%.
In data set [1], `COc1cc2c(cc1OCC1CC1)CC(CC1CCN(Cc3ccccc3)CC1)C2=O` (stereo not given) registered a half-inhibitory concentration (IC50) of 0.21 µM. For the same compound, the inhibition in data set [4] is less than 10%.
With `COc1ccc(C2CNC(=O)C2)cc1OC1CCCC1` (stereo not given), in [5], the outcome was Active.
Turning to `COc1cc2c(cc1OC1CCCC1)CC(CC1CCNCC1)C2=O` (stereo not given), the inhibition was less than 10% in data set [4] and 19% in data set [3].
`COc1cc2c(cc1OCC(C)C)CC(CC1CCN(Cc3ccccc3)CC1)C2=O` (stereo not given) displayed a 50% inhibitory concentration (IC50) in data set [1] of 0.21 µM. This compound also yielded an inhibition in data set [4] of less than 10%.
Turning to `COc1cc2c(cc1OCC(C)C)C(=O)C(Cc1ccncc1)C2` (stereo not given), the figures for the inhibition in data set [4] and in data set [3] were 34% and 14%, respectively.
As for `COc1cc2c(cc1OC1CCCC1)C(=O)C(CC1CCN(Cc3ccccc3)CC1)C2` (stereo not given), the IC50 in data set [1] was found to be 0.058 µM. The inhibition in data set [4] is less than 10%.
The matching figures for `COc1cc2c(cc1OC1CCCC1)CC(CC1CCN(Cc3ccccc3)CC1)C2=O` (stereo not given): 0.21 µM and less than 10%.
For `COc1cc2c(cc1OCC1CC1)C(=O)C(CC1CCN(Cc3ccccc3)CC1)C2` (stereo not given) the same measures were 0.045 µM and less than 10%.
In the case of `COc1cc2c(cc1OC1CCCC1)C(=O)C(CC1CCNCC1)C2` (stereo not given), the inhibition was less than 10% in data set [4] and 11% in data set [3].
As to `COc1cc2c(cc1OCCN1CCCCC1)C(=O)C(Cc1cccnc1)C2` (stereo not given), the IC50 in [1] was 0.28 µM; in [2], 1.88 µM; in data set [12], 36.9 µM; in data set [13], more than 50 µM; in [14] it was more than 50 µM; in data set [15], more than 50 µM. Moreover, the IC50 in data set [16], in data set [17], in data set [18], in [19] and in data set [20] was more than 50 µM each time. In addition, the Ratio IC50 in data set [11] was 19. The results for the Activity result in data set [21], in data set [23] and in [24] were “Non-Toxic”, “Non-Toxic” and “Dde”, respectively. Besides, the outcome in data set [22], in data set [6] and in data set [8] was Active. Further, the inhibition entry in [7] was “Active”.
Turning to `COc1ccc(CC2Cc3cc(OC)c(OCCN4CCCCC4)cc3C2=O)cc1` (stereo not given), the midpoint of inhibition in data set [1], the IC50, lay at 0.81 µM. The inhibition in [4] is less than 10%.
`COc1cc2c(cc1OCC1CC1)C(=O)C(Cc1ccncc1)C2` (stereo not given): the IC50 in data set [1] turned out to be 35.9 µM; in data set [2], 6.3 µM. The inhibition in data set [3] was 25%.
As for `COc1cc2c(cc1OC1CCCC1)C(=O)/C(=C/c1cccnc1)C2`, the figures for the IC50 in data set [1] and in data set [2] were 8.4 µM and 4.1 µM, respectively. Also, the inhibition in [3] stood at 56%.
`COc1cc2c(cc1OC1CCCC1)C(=O)C(Cc1cccnc1)C2` (stereo not given) displayed an IC50 in data set [2] of 23 µM. For the same compound, the inhibition in data set [4] is 34%; in data set [3] it was 26%.
Take `COc1cc2c(cc1OCCN1CCCCC1)C(=O)C(Cc1ccncc1)C2` (stereo not given): the values for the IC50 in [1] and in data set [2] were 0.07 µM and 16.4 µM, respectively.
With `COc1cc2c(cc1OC1CCCC1)C(=O)C(Cc1ccncc1)C2` (stereo not given), the values for the 50% inhibitory concentration (IC50) in data set [1] and in [2] were 55.9 µM and 3.4 µM, respectively. For the same compound, the inhibition in data set [3] was 15%.
Take `COc1cc2c(cc1OC1CCCC1)C(=O)/C(=C/c1ccccn1)C2`: the inhibition was 11% in data set [4] and 39% in data set [3].
Take `COc1cc2c(cc1OC1CCCC1)C/C(=C\c1cccnc1)C2=O`: 11.7 µM corresponded to half-maximal inhibition in data set [1] (IC50). The inhibition was less than 10% in data set [4] and 50% in [3].
With `COc1cc2c(cc1OCC1CC1)CC(CC1CCNCC1)C2=O` (stereo not given), the inhibition was less than 10% in data set [4] and 25% in data set [3].
`COc1cc2c(cc1OCCN1CCCC1)C(=O)C(Cc1ccncc1)C2` (stereo not given) showed an IC50 in data set [1] of 1.08 µM. In data set [4], this compound yielded an inhibition of less than 10%.
